The values below come from patent publication US9980943B2, “Methods of treating muscular dystrophy” (BOARD OF REGENTS OF THE NEVADA SYSTEM OF HIGHER EDUCATION, …, priority 2013, dated 2018).

Holding throughout (type): cell-based, mouse
Assay [1] concerns α7 integrin (LacZ reporter in α7βgal+/− myoblasts). The assay can be described thus: Myoblast α7+/LacZ integrin FDG assay (Burkin assay in myoblasts, 96-well). The conditions noted are these: α7+/LacZ myoblasts, 96-well.
Assay [2] concerns β-galactosidase in CMV-LacZ C2C12 myotubes. The assay can be described thus: CMV-LacZ secondary screen in C2C12 myotubes (β-Gal stabilizing assay). The following applies: for CMV-LACZ in Myotubes (β-galactosidase activity relative to DMSO): CMV-LacZ C2C12 myotubes, 96-well format; for CMV-LACZ in Myotubes, signal relative to DMSO: C2C12 CMV-LacZ myotubes, fold relative to DMSO. The essentials:
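β-gal stabilization was measured in C2C12 myoblasts or myotubes stably transfected with a CMV-driven LacZ construct, using the FDG β-gal assay. Compounds were tested in dose-response at 0.5, 1, 5, 10, 20 and 40 μM, with two replicates per point.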

The subject of assay [3] is α7 integrin (LacZ reporter in α7+/LacZ myotubes). The experiment in a line: Myotube α7 integrin FDG assay (Burkin assay in myotubes, 96-well). The conditions noted are these: myotubes.

For the molecule `CCOc1ccc(S(=O)(=O)NCCC(=O)NCC(c2cccs2)N2CCOCC2)cc1` (stereo not drawn) [MLS001080869-01], the “Burkin Assay in Myoblasts, value relative to DMSO” value worked out at 1.144 in assay [1] (0.5 uM); 1.036 in assay [1] (1 uM); 1.147 in assay [1] (5 uM); 0.9857 in assay [1] (10 uM); 0.973 in assay [1] (20 uM); 0.8485 in assay [1] (40 uM). Besides, the “CMV-LACZ in Myotubes (β-galactosidase activity relative to DMSO)” value in assay [2] (5 uM) was determined as 0.9349; in assay [2] (10 uM), 0.9153; in assay [2] (20 uM) it was 0.9927; in assay [2] (40 uM), 1.01. The “Burkin Assay in Myotubes (signal relative to DMSO)” value is 1.011 in assay [3] (0.5 uM); 0.9574 in assay [3] (1 uM); 0.974 in assay [3] (5 uM); 0.9257 in assay [3] (10 uM); 0.9862 in assay [3] (20 uM); 0.9802 in assay [3] (40 uM).
With `O=Cc1ccc(C(=O)OCC(=O)N2CCCC2)cc1` [MLS001172577-01], the “Burkin Assay in Myoblasts, value relative to DMSO” value in assay [1] (0.5 uM) worked out at 0.996; in assay [1] (1 uM), 0.9654; in assay [1] (5 uM) it was 1.142; in assay [1] (10 uM), 1.0758; in assay [1] (20 uM), 1.0212; in assay [1] (40 uM), 0.9431. For the same molecule, the “CMV-LACZ in Myotubes, signal relative to DMSO” value in assay [2] (5 uM) was 0.8944; in assay [2] (10 uM) it was 0.862; in assay [2] (20 uM), 1.029; in assay [2] (40 uM) it was 0.9627. In addition, the “Burkin Assay in Myotubes (signal relative to DMSO)” value in assay [3] (0.5 uM) stood at 1.122; in assay [3] (1 uM), 1.0349; in assay [3] (5 uM) it was 1.131; in assay [3] (10 uM) it was 1.101; in assay [3] (20 uM), 1.14; in assay [3] (40 uM), 0.7324.
Regarding `C[C@H](NS(=O)(=O)c1ccc(Cl)cc1)C(=O)OCC(=O)c1ccc[nH]1` [MLS000761297-01], the “Burkin Assay in Myoblasts, value relative to DMSO” value in assay [1] (0.5 uM) turned out to be 1.0693; in assay [1] (1 uM), 1.071; in assay [1] (5 uM), 1.121; in assay [1] (10 uM) it was 1.055; in assay [1] (20 uM) it was 1.072; in assay [1] (40 uM), 0.9526. For the same molecule, the “CMV-LACZ in Myotubes (β-galactosidase activity relative to DMSO)” value came out at 0.9911 in assay [2] (5 uM), 0.8106 in assay [2] (10 uM), 0.993 in assay [2] (20 uM) and 0.8829 in assay [2] (40 uM). The “Burkin Assay in Myotubes (signal relative to DMSO)” value in assay [3] (0.5 uM) is 1.0906; in assay [3] (1 uM), 1.022; in assay [3] (5 uM) it was 1.154; in assay [3] (10 uM), 1.033; in assay [3] (20 uM), 1.045; in assay [3] (40 uM), 1.093.
